{"source": "patent US20030104451A1", "about": "“Arrays using polymerized monomolecular films and methods for using and manufacturing the same” (priority 2001, published 2003)", "biological_target": "T1, streptavidin (Streptomyces avidinii, UniProt P22629)", "T1 construct": "purchased Sigma-Aldrich", "test": "Competitive inhibition of streptavidin capture on biotin-PDTF by free biotin", "format": "binding", "settings": "streptavidin preincubated 30 min with free biotin; chip 0.25 pmol/monolayer biotin (1% biotin-PDTF)", "description": "The remaining free protein (in this case streptavidin) concentration in solution can then be estimated with the MILD-MALDI-MS approach.\nThe surfaces were allowed to air dry."}
{"smiles": "O=C(O)CCCC[C@@H]1SC[C@@H]2NC(=O)N[C@@H]21", "note": "[biotin]", "values": [{"measurement": "free biotin excess over streptavidin at which competition is clearly seen", "value": "100 -fold"}]}
